# Assays:
# [1] = system: HMEX1906 primary melanoma model (HMEX1906-R5); assay: Efficacy in HMEX1906-R5 primary melanoma model resistant to Compound of Formula (I); assay type: in vivo; settings: PO; Compound C 250 mg/kg qd×21; Compound of Formula (I) 5 mg/kg bid×21
# Procedure: Objective: To evaluate the efficacy of the combination of the Compound of Formula (I) and the CDK 4 inhibitor Compound C in the HMEX1906 primary melanoma model that is grown in the presence of and is resistant to 5 mg/kg the Compound of Formula (I) (HMEX1906-R5)
# Drug formulation: Compound C is formulated in 0.5% MC/0.5% Tween80 and the Compound of Formula (I) is formulated in 20% PEG300/3% ETPGS.
# Tumors are chopped/minced into cell line like suspension (tumors homogenized). 7 mL of matrigel added and 1.5 mL of HBSS. Suspension warmed in palm until Matrigel is thick and implanted with a 18G needle s.c right flank of female nude mice.
# The mice were assigned to the following groups at 18 days post implant with an average tumor volume of 266 mm^3 and average body weight of 25 grams.
# Groups: 10 mice/group, route PO, dose volume 0.2 mL
# Group 1: Vehicle, 0 mg/kg bid×14
# Group 2: Compound C, 250 mg/kg qd×21
# Group 3: Compound of Formula (I), 5 mg/kg bid×21
# Group 4: Compound C 250 mg/kg qd×21+Compound of Formula (I) 5 mg/kg bid×21
# [2] = system: MAPK and PIK3C signaling in COLO 741 cells; assay: Western analysis of phosphorylated MEK1/2, ERK1/2 and AKT; assay type: cell-based; settings: for Phosphorylated levels of AKT: 100 nM
# Procedure: (§1) FIG. 4—The effect on signaling of combining the Compound of Formula (I) with the FGFR inhibitor Compound H and the FGFR ligand FGF2 in two BRAFV600E mutant melanoma-derived cell lines in vitro. Shown is western analysis of both phosphorylated and total AKT, ERK1/2, and MEK1/2 proteins isolated from (A) […] and (B) SK-MEL-5 cells following treatment with the Compound of Formula (I) (100 nM), FGF2 (100 ng/ml), and Compound H (1 uM). Cells were treated for 2 and 24 hours with agents singly and in combination as discussed in Example 5.
# (§2) For Western analysis, cells were plated in 6-well (Costar, catalog number 3506) plates at a density of 5×10^5 cells per well in 2.0 ml of complete culture medium. Twelve to 24 hrs after plating, cells were treated with the various compounds, and in all experiments the Compound of Formula (I), Compound H, and FGF2 were used at final concentrations of 100 nM, 1.0 uM, and 100 ng/ml, respectively. Cells were harvested 2, and 24 hrs following the addition of compound in freshly prepared cell lysis buffer (Cell Signaling Technology Catalog number 9803); supplemented with both phosphatase (PhosStop, Roche Catalog number 04906845001) and protease inhibitors (Roche, catalog number 11697498001). Proteins from cell lysates were separated by electrophoresis though a NuPAGE 4-12% Bis-Tis midi gel (Novex, catalog number WG1402BX10), transferred to nitrocellulose membranes, which were subsequently incubated with antibodies from Cell Signaling Technology (Danvers, Mass., USA) recognizing p-AKT (S473, Catalog number 4058), total AKT (Catalog number 2920), p-ERK1/2 (T202/Y204, catalog number 9101), total ERK1/2 (catalog number 9107), p-MEK1/2 (S217/221, catalog number 9121) and β-actin (Ambion, catalog number AM4302). Western blots were visualized following incubation with IRDye 680RD Goat anti-Rabbit IgG (Li-Cor, Catalog number 926-68071) and IRDye 800 CW Goat anti-Mouse IgG (Li-Cor, Catalog number 926-32210) and scanning with an Odyssey Infrared Imager System (Li-Cor, Lincoln, Nebr., USA).
# (§3) To investigate whether either restored MAPK or activated PIK3C signaling might underlie FGF2-mediated rescue the effects of FGF2 on MAPK and PIK3C signaling were examined via western-blot analysis of phosphorylated MEK1/2 (MAP2K1/2), ERK1/2 (MAPK1/2) and AKT1/2/3.
# [3] = system: MAPK and PIK3C signaling in SK-MEL-5 cells; assay: as above; assay type: cell-based
# Procedure: as §1, §2, §3
structure (smiles),measurement,setting,value
COC(=O)N[C@@H](C)CNc1nccc(-c2cn(C(C)C)nc2-c2cc(Cl)cc(NS(C)(=O)=O)c2F)n1 [Compound of Formula (I)],Mean change of body weight,[1],3.5 ± 1.1 % ± SEM
same,Mean change of tumor volume,[1],807 ± 106 mm3 ± SEM
same,Mean change of tumor volume vs control (T/C),[1],39%
same,Survival (Survivors/Total),[1],10/10
same,MAPK signaling (phosphorylated MEK and ERK levels),"[2]; COLO 741, 2 and 24 hours, no FGF2, Formula (I) 100 nM, Compound H 1.0 uM",marked suppression of MAPK signaling
same,Phosphorylated levels of AKT,"[2]; COLO 741, 2 hours",unaffected
same,Phosphorylated levels of AKT,"[2]; COLO 741, 24 hrs",modest decreases
same,levels of phosphorylated MEK and ERK,"[2]; COLO 741, with FGF2 100 ng/ml, 24 hrs","largely, although not completely, restored"
same,changes in signaling relative to Compound of Formula (I) alone,"[2]; COLO 741, with FGF2 100 ng/ml, two hours",minimal changes
same,MAPK signaling (phosphorylated MEK and ERK levels),"[3]; SK-MEL-5, 2 and 24 hours, no FGF2, Formula (I) 100 nM, Compound H 1.0 uM",marked suppression of MAPK signaling
same,Phosphorylated levels of AKT,"[3]; SK-MEL-5, 2 hours, 100 nM",unaffected
same,levels of phosphorylated MEK and ERK,"[3]; SK-MEL-5, with FGF2 100 ng/ml, 24 hrs","largely, although not completely, restored"
same,changes in signaling relative to Compound of Formula (I) alone,"[3]; SK-MEL-5, with FGF2 100 ng/ml, two hours",minimal changes

# Source: patent publication US10548894B2, “Combination therapy” (Array BioPharma Inc., priority 2013, dated 2020)
